Experimental data as given in patent US6124263A, “Treatment of tumors by administration of growth hormone releasing compounds and their antagonists” (Asta Medica AG, priority 1998, dated 2000).
Numbered stars: 1 amine (or outer) side, 2 acyl side, 3 side chain; on linkers, the order of the positions; unused ones are H or OH. Square brackets hold non-standard residues; d marks the D form. Peptide text beside a SMILES is read from it. Haic = O=C1[C@@H](N[*:1])CCc2cccc3c2N1[C@H](C(=O)[*:2])C3; dTrp(2-Me) = Cc1[nH]c2ccccc2c1C[C@@H](N)C(=O)O

How the values were obtained:
[1] = system: Human lung carcinoma cells (CaLu1); type: cell-based; settings: for EC50: 3 h; for effect on basal and EGF-stimulated 3H-thymidine incorporation: 10-6 mol/l compound, 20 h + 4 h incubation, FIG. 4
Experimental: Human lung carcinoma cells (CaLu1), T47D and MDA-MB231, respectively, human oestrogen dependent and oestrogen independent breast cancer cell lines were purchased from the ATCC (Rockville, Md., USA). Cells were routinely cultured in […] flasks at 37° C., 5% CO2 and 95% humidified atmosphere in RPMI supplemented with 10% FCS, penicillin-streptomycin and fungizone. When a subconfluent state was reached, cells were detached from the flasks with trypsin/EDTA. DNA synthesis was evaluated by ^3 H-thymidine incorporation as described in G. Muccioli et al., Journal of Endocrinology, 153, 365-371, 1997. […] After incubation for 20 hours, ^3 H-thymidine was added and incubation was continued for a further 4 hours. The reaction was halted and the cells were harvested onto glass-fiber filter strips. Incorporation of ^3 H-thymidine was measured in a scintillation counter.

[2] = system: human breast cancer MDA-MB231 cells; experiment: Cell growth study (cell count), MDA-MB231 cells; type: cell-based; settings: FIG. 8a
Experimental: (§1) Human lung carcinoma cells (CaLu1), T47D and MDA-MB231, respectively, human oestrogen dependent and oestrogen independent breast cancer cell lines were purchased from the ATCC (Rockville, Md., USA). Cells were routinely cultured in […] flasks at 37° C., 5% CO2 and 95% humidified atmosphere in RPMI supplemented with 10% FCS, penicillin-streptomycin and fungizone. When a subconfluent state was reached, cells were detached from the flasks with trypsin/EDTA. Cell growth studies were carried out as described in P.Cassoni et al., Virchows Archiv, 425, 467-472, 1994. Cells were seeded in triplicate in 24-multiwell plates at a density of 5,000-10,000 cells/ml. Twenty-four hours after plating the medium was changed. Hexarelin or Ala-Hexarelin were added where requested at concentrations ranging from 10^-8 to 10^-6 mol/l. The medium was changed every 48 hours. Cells were counted at 48 and 72 or 96 hours of treatment in a double blind analysis by two independent investigators using a haemocytometer.

[3] = system: Human lung carcinoma cells (CaLu1); experiment: Cell growth study (cell count), human lung carcinoma cells; type: cell-based; settings: FIG. 6
Experimental: as §1

[4] = system: human breast cancer T47D cells; experiment: Cell growth study (cell count), T47D cells; type: cell-based; settings: FIG. 7a
Experimental: as §1

[5] = system: GHRP receptors; experiment: GHRP receptor assay: 125I-Tyr-Ala-Hexarelin binding to tumor membranes; set-up: species or system human; settings: for competition with 125I-Tyr-Ala-Hexarelin for the tumoral binding sites (displacement of radiotracer binding): membranes of a non-endocrine carcinoma of lung origin, FIG. 3
Experimental: Surgical tumor specimens were collected from the Department of Biomedical Sciences and Human Oncology (Division of Pathology) of the University of Turin. A tumor fragment adjacent to that used for histopathological diagnosis was immediately frozen at -80° C. and stored for 2 to 60 months until further processed for binding studies. Samples of 13 invasive breast carcinoma (10 ductal and 3 lobular), 14 non-endocrine lung carcinomas (5 squamous cell and 9 adenocarcinomas), 11 endocrine tumors of the lung, 9 endocrine tumors of the pancreas and 12 thyroid carcinomas (7 of follicular origin and 5 of medullary origin) were used. Non-neoplastic normal tissues of the corresponding organs were also analysed in parallel with the individual tumors.
GHRP receptors were measured on tumor membranes as described in G. Muccioli et al., Journal of Endocrinology, 157, 99-106, 1998, using ^125 I-Tyr-Ala-Hexarelin as a ligand. Specific binding was calculated as the difference between binding in the absence and in the presence of excess unlabelled Tyr-Ala-Hexarelin and expressed as a percentage of the radioactivity added. Saturation and competition binding studies were analyzed with the GraphPAD Prism 2 program (GraphPAD Software, San Diego, Calif., USA).

[6] = 10^-7 mol/l and 10^-6 mol/l, any time point tested

Compound: NCCCC[C@H](NC(=O)[C@@H](Cc1ccccc1)NC(=O)[C@H](Cc1c[nH]c2ccccc12)NC(=O)[C@@H](CCCCN)NC(=O)[C@@H](Cc1c[nH]c2ccccc12)NC(=O)[C@@H](N)Cc1c[nH]cn1)C(N)=O [(D-Lys)3 -GHRP6, His-D-Trp-D-Lys-Trp-D-Phe-Lys-NH2] (H-H[dW][dK]W[dF]K-NH2)
- EC50 [1]: 90 nM

Compound: Cc1[nH]c2ccccc2c1C[C@@H](NC(=O)[C@H](Cc1c[nH]cn1)NC(=O)[C@H](C)N)C(=O)N[C@@H](C)C(=O)N[C@@H](Cc1c[nH]c2ccccc12)C(=O)N[C@H](Cc1ccccc1)C(=O)N[C@@H](CCCCN)C(N)=O [Ala-Hexarelin, Ala-His-D-Mrp-Ala-Trp-D-Phe-Lys-NH2] (H-AH[dTrp(2-Me)]AW[dF]K-NH2)
- EC50 [1]: 100 nM

Compound: Cc1[nH]c2ccccc2c1C[C@@H](NC(=O)[C@@H]1Cc2cccc3c2N1C(=O)[C@@H](N)CC3)C(=O)N[C@H](CCCCN)C(=O)N[C@@H](Cc1c[nH]c2ccccc12)C(=O)N[C@H](Cc1ccccc1)C(=O)N[C@@H](CCCCN)C(N)=O [EP80317, HAIC-D-Mrp-D-Lys-Trp-D-Phe-Lys-NH2] (Haic-[dTrp(2-Me)][dK]W[dF]K-NH2)
- EC50 [1]: 56 nM

Compound: Cc1[nH]c2ccccc2c1C[C@@H](NC(=O)[C@@H](N)Cc1cnc[nH]1)C(=O)N[C@@H](C)C(=O)N[C@@H](Cc1c[nH]c2ccccc12)C(=O)N[C@H](Cc1ccccc1)C(=O)N[C@@H](CCCCN)C(N)=O [Hexarelin, His-D-Mrp-Ala-Trp-D-Phe-Lys-NH2] (H-H[dTrp(2-Me)]AW[dF]K-NH2)
- decrease in cell number compared with control at higher concentrations [2, 6]: further increased
- decrease in cell number compared with control ([2]; 10^-8 mol/l, after 72 hours): -33%
- effect on basal and EGF-stimulated 3H-thymidine incorporation ([1]; EGF 1 ng/ml): able to inhibit both basal and the EGF-stimulated
- inhibition of the proliferative effect of EGF with increasing concentrations ([1]; 10^-8 to 10^-6 mol/l, EGF 1 ng/ml, FIG. 5): inhibited in a dose-dependent fashion
- EC50 [1]: 80 nM
- decrease in cell number compared with control at higher concentrations [3, 6]: further increased
- decrease in cell number compared with control ([3]; 10^-8 mol/l, after 96 hours): -47%
- decrease in cell number compared with control at higher concentrations [4, 6]: further increased
- decrease in cell number compared with control ([4]; 10^-8 mol/l, after 96 hours): -54%
- competition with 125I-Tyr-Ala-Hexarelin for the tumoral binding sites (displacement of radiotracer binding) [5]: displaced in a dose-dependent fashion

Compound: CC(C)(N)C(=O)N[C@H](COCc1ccccc1)C(=O)N1CCC2(CC1)CN(S(C)(=O)=O)c1ccccc12 [MK0677, reference compound]
- effect on basal and EGF-stimulated 3H-thymidine incorporation ([1]; EGF 1 ng/ml): slight inhibition
- competition with 125I-Tyr-Ala-Hexarelin for the tumoral binding sites (displacement of radiotracer binding) [5]: negligible displacement

Compound: Cc1[nH]c2ccccc2c1C[C@@H](NC(=O)[C@H](Cc1c[nH]cn1)NC(=O)[C@H](C)NC(=O)[C@@H](N)Cc1ccc(O)cc1)C(=O)N[C@@H](C)C(=O)N[C@@H](Cc1c[nH]c2ccccc12)C(=O)N[C@H](Cc1ccccc1)C(=O)N[C@@H](CCCCN)C(N)=O [Tyr-Ala-Hexarelin, Tyr-Ala-His-D-Mrp-Ala-Trp-D-Phe-Lys-NH2] (H-YAH[dTrp(2-Me)]AW[dF]K-NH2)
- EC50 [1]: 65 nM

Compound: C[C@H](N)C(=O)NCC(=O)N[C@H]1CSSC[C@@H](C(=O)O)NC(=O)[C@H](CO)NC(=O)[C@H]([C@@H](C)O)NC(=O)[C@H](Cc2ccccc2)NC(=O)[C@H]([C@@H](C)O)NC(=O)[C@H](CCCCN)NC(=O)[C@H](Cc2c[nH]c3ccccc23)NC(=O)[C@H](Cc2ccccc2)NC(=O)[C@H](Cc2ccccc2)NC(=O)[C@H](CC(N)=O)NC(=O)[C@H](CCCCN)NC1=O [somatostatin]
- competition with 125I-Tyr-Ala-Hexarelin for the tumoral binding sites (displacement of radiotracer binding) [5]: no competition

Compound: GHRH: Human GHRH (GHRH 1-44) purchased from Bachem
- competition with 125I-Tyr-Ala-Hexarelin for the tumoral binding sites (displacement of radiotracer binding) [5]: no competition

Compound: ^125 I-Tyr-Ala-His-D-Mrp-Ala-Trp-D-Phe-Lys-NH2 [^125 I-Tyr-Ala-Hexarelin]
- binding of 125I-Tyr-Ala-Hexarelin to tumor membranes as a function of radioligand concentration (saturation, Scatchard) ([5]; non-endocrine carcinoma of lung origin, FIG. 2): saturable specific binding
